Source: article PMC8171087, “Pharmacological inhibition of noncanonical EED-EZH2 signaling overcomes chemoresistance in prostate cancer” (Theranostics, 2021)

Target: embryonic ectoderm development (EED) (Homo sapiens, UniProt O75530)
Sequence (O75530 2-441): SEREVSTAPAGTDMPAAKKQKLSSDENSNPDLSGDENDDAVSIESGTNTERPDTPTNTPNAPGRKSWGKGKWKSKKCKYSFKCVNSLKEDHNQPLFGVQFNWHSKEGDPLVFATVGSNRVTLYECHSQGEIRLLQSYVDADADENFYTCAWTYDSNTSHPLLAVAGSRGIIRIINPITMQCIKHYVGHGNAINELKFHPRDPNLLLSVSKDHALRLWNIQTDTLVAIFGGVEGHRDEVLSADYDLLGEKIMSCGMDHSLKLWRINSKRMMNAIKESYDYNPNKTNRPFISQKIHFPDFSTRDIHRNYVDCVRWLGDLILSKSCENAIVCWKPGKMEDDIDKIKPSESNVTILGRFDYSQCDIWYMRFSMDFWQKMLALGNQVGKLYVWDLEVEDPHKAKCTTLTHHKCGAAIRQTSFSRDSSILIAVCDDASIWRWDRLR

For CCOP(=O)(OCC)C(NC(=O)[C@H](Cc1ccc(-c2ccccc2)cc1)NC(=O)/C=C/c1ccc(-c2ccccc2)cc1)P(=O)(OCC)OCC [LG1980], the Kd was 2.71 µM.
